Earlier results as cited in US20230270709A1, “ANTIVIRAL PHARMACEUTICAL COMPOSITION FOR TOPICAL ADMINISTRATION” (Christian-Albrechts-Universitat Zu Kiel, priority 2020, published 2023).
Where a name gives a salt, the structure may show the parent alone.

Legend:
[1] = target: transmembrane protease, serine 2 (TMPRSS2) (Homo sapiens, UniProt O15393); details: Zhou et al., Antiviral Research 116 (2015)
SARS-CoV = details: pathogenic animal model for SARS-CoV infection; Zhou et al. 2015
SARS-CoV-2 = details: Hoffmann et al. 2020

Chain of transmembrane protease, serine 2 (TMPRSS2) (O15393 whole entry): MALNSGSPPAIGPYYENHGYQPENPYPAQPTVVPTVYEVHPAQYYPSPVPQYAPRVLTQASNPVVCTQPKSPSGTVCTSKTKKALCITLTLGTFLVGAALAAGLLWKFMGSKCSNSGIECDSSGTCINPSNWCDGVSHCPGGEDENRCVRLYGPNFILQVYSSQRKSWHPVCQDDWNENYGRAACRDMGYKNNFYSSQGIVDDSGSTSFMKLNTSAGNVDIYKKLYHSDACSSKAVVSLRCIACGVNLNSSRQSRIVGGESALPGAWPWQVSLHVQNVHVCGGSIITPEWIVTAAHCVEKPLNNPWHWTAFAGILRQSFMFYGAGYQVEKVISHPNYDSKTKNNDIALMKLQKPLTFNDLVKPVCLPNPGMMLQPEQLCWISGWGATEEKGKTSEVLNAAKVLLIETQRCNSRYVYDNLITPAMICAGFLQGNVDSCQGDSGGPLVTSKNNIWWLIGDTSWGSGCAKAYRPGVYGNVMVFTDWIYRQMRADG

SMILES | inhibition of TMPRSS2 [1] | antiviral activity in animal model (SARS-CoV) | effect on SARS-CoV-2 infections of lung cells (SARS-CoV-2)
CN(C)C(=O)COC(=O)Cc1ccc(OC(=O)c2ccc(NC(=N)N)cc2)cc1 [camostat] | inhibit | display antiviral activity | –
N=C(N)c1ccc2cc(OC(=O)c3ccc(N=C(N)N)cc3)ccc2c1 [nafamostat mesylate] | – | – | reduce SARS-CoV-2 infections of lung cells
CN(C)C(=O)COC(=O)Cc1ccc(OC(=O)c2ccc(NC(=N)N)cc2)cc1 [camostat mesylate] | – | – | reduce SARS-CoV-2 infections of lung cells
